Patent US8097241B2, “Formulation and method for treating animal waste” (priority 2007, dated 2012)

Tests used:
[1] = Rate of disintegration of animal waste: time to a uniformly distributed suspension under magnetic stirring; design: species or system dog; settings: about 5 g waste, 90.0 g water, stirring about 90 rpm; water alone 16 minutes
Procedure: 1. The selected amount of feces was weighed out with the accuracy of 10 mg. All the samples had the same mass within 200 milligrams.
2. […]
3. The mixture was mixed at specific rate (about 90 rpm) using a magnetic bar inside the solution and a magnetic stirrer. The amount of time necessary to produce a uniformly distributed suspension was measured.

[2] = Rate of malodor disappearance from dog waste stirred at 40° C.; settings: oxidizing agent added to the formulation or as aqueous solution
Procedure: 1. The specific amount of feces was weighed (about 4.0 g; accuracy of 1 mg) out and transferred to the 200 mL beaker.
2. 100.0 g of aqueous solution containing either no additives or the selected ones weighed at the same balance (accuracy of 1 mg) was added to the beaker.
3. The sample was located on a hot plate and stirred magnetically at 40° C. in the fume hood.
4. The samples were checked for the released smell every few minutes.
50.0 mL of deionized water containing selected quantities of detergent, pH affecting agent and protease (same concentration as in the formulation divided by 50 since this is the planned dilution with water), pH affecting agent and protease • a. no additives • b. Cola Lipid (0.20 g); protease (Alcalase 3.0T, 0.008 g), sodium perborate tetrahydrate (0.012 g), citric acid (to adjust pH to about 3.0), • c. Cola Lipid (0.20 g); protease (Alcalase 3.0T, 0.008 g), sodium perborate tetrahydrate (0.012 g), sodium hydrogen carbonate (to adjust pH to about 10.0), • d. Cola Lipid (0.20 g); protease (Alcalase 3.0T, 0.008 g), 5% hydrogen peroxide (0.100 g), citric acid (to adjust pH to about 3.0) was added to 3.00 g of the dog waste. The mixtures were located in the fume hood, heated on the hot plate to 40° C. and stirred magnetically. […] The malodor of the sample “a” disappeared after about 30 minutes.

animal waste bio-burden = assay: Lowering of animal waste bio-burden: dog waste homogenised with additives, serially diluted, plated on agar, CFUs counted; format: cell-based
Procedure: 1. A specific amount of a dog waste weighed with the accuracy of 1 mg (usually between 3 and 7 g) was transferred into the sterilized homogenizer. In a set of experiments performed on a given day the mass of all the samples were the same within 20.0 mg.
2. All the required additives were weighed out using the same balance and introduced into a specific amount of deionized, freshly boiled (but cooled to room temperature) water (usually between 50.0 g and 100.0 g) in the sterilized Erlenmeyer flask.
3. Next, the aqueous solution of additives was transformed into the homogenizer.
4. The mixture was mixed at low (18,000 RPM) for a specific amount of time (usually 30 seconds).
5. The resulting suspension was transferred to the sterilized Erlenmeyer flask and gradually diluted 10 times in several subsequent dilution steps. Initially, 5.0 mL of the non-diluted solution was added to 45.0 mL of deionized, freshly boiled water. The Eppendorf pipettes were used for further dilutions and in each case […] of the previous sample after vortex was added to 0.900 mL of deionized, freshly boiled water in a sterile vial. Usually, 6 or 7 dilutions were performed. In every set of experiments one sample consisted of the feces and water only. All the results were measured against this sample.
6. […]
8. Next, each sample was counted to determine the number of CFUs (colony forming units).

CCCCCCCCCCCCOS(=O)(=O)[O-].[Na+] [Sodium dodecyl sulfate, sodium dodecyl sulfate]
Time until feces disintegration [1]: 1 min

CCCCCCCC/C=C\CCCCCCCC(=O)OCCOCC(OCCO)C1OCC(OCCO)C1OCCO (stereo not shown) [Tween 80, polysorbate 80]
Time until feces disintegration [1]: 2 min

O=C(OO)c1cccc(Cl)c1 [metachloroperbenzoic acid (MCPBA), metachloroperbenzoic acid]
reduction of malodor of feces, in words [2]: destroy the malodor very effectively

O.O.O.O=BO[O-].[Na+] [sodium perborate trihydrate]
reduction of malodor of feces, in words [2]: significantly reduced malodours

cocamidopropyl PG-dimonium chloride phosphate [Cola lipid]
Time until feces disintegration [1]: 1 min | effect of added citric acid on antimicrobial activity (animal waste bio-burden; formulation of Table 3 against the same formulation without citric acid): significantly enhanced the antimicrobial activity | antimicrobial activity, comparison in words (animal waste bio-burden; treating animal waste): significantly better antimicrobial activity

octoxynol [Triton X100]
Time until feces disintegration [1]: 4 min

sodium perborate
reduction of malodor of feces, in words [2]: destroy the malodor very effectively | reduction of malodor of feces, in words ([2]; listed as Sodium perborate): effectively minimizes the malodor of feces
